Measurements: paper PMC9558053, “Development of a novel high-throughput screen for the identification of new inhibitors of protein S-acylation” (The Journal of Biological Chemistry, 2022)

Molecular target: T1, human zDHHC7 (Homo sapiens, UniProt Q9NXF8)
T1 construct: expressed in transfected cells; host or cells: HEK293T
T1 sequence (Q9NXF8 1-308): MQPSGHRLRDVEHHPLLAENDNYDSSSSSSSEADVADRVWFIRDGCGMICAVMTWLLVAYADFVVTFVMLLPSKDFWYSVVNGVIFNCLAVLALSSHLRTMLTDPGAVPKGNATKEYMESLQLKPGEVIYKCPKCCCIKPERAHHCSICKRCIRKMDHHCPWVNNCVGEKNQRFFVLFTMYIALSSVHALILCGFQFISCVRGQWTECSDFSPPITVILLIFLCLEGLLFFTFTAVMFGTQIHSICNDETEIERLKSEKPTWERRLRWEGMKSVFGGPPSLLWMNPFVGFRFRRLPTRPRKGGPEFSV
Assay: GFP-SNAP25b S-acylation in HEK293T cells co-expressing zDHHC7
Type: cell-based
Details: in cellulo HEK293T, compound 25 μM; for inhibition at 25 µM: HEK-293T, read-out: SNAP25 S-acylation inhibition (%), zDHHC7
Experimental: We next investigated whether the identified compounds were effective at inhibiting zDHHC enzyme isoforms other than zDHHC2 (Fig. 6 and Table 1). […] We therefore treated cells coexpressing GFP-SNAP25 and each of these zDHHC enzymes with 25 μM of TTZ-1 and TTZ-2 and studied the subsequent effect on SNAP25 S-acylation. […] Importantly, the level of enzyme expression was unaffected by the compounds. […] As any major differences in the expression levels of the different enzymes could in theory contribute to the apparent differential effects of TTZ-1 and TTZ-2, we directly compared the expression of zDHHC2, zDHHC3, zDHHC7, zDHHC15, and zDHHC17 when transfected in HEK293T cells together with GFP-SNAP25.
Figure 6 Activity of TTZ-1 and TTZ-2 against SNAP25 S-acylation by human zDHHC2, zDHHC3, zDHHC7, zDHHC15, and zDHHC17 expressed in mammalian cells.A–E, HEK293T cells were transfected with a plasmid encoding GFP-SNAP25b together with either a control plasmid pEF-BOS-HA (pEF) or a plasmid encoding either HA-tagged human zDHHC2 (zD2) (A), zDHHC3 (zD3) (B), zDHHC7 (zD7) (C), zDHHC15 (zD15) (D), or zDHHC17 (zD17) (E) for 24 h. Cells were then preincubated for 4 h with TTZ-1 or TTZ-2 (25 μM final) or DMSO control before metabolic labeling with 100 μM C16:0-azide for 4 h. Cells were lysed, and proteins having incorporated C16:0-azide were labeled by click chemistry with an alkyne-IR800 dye. Protein samples were then resolved by SDS-PAGE and transferred to nitrocellulose membranes that were first stained with an infrared-680 total protein stain. Membranes were then destained and probed with an anti-HA antibody (IR680), followed by an anti-GFP antibody (IR680). Representative images are shown, and panels are presented in the following order (from top to bottom): click chemistry signal (Click [IR800]), GFP and HA immunoblots (IR680), and Total Protein Stain (IR680). Positions of the molecular mass markers (in kilodalton) are indicated on the right side of the membranes. Three independent experiments were performed either in duplicate or in triplicate, and the quantification data were gathered on the graphs below each set of membranes. […] Filled circles represent individual samples. […] Filled circles represent individual samples. Statistical analysis (ANOVA) was performed to test whether there was a significant difference between the zDHHC expression of cells treated with DMSO as a control versus similar samples treated with TTZ-1 or TTZ-2 (∗∗p < 0.01). F, samples from A, B, C, D, and E (expressing GFP-SNAP25 and HA-tagged zDHHC enzymes and treated with DMSO) were loaded on an SDS-PAGE gel and transferred to a nitrocellulose membrane. The membrane was probed for the expression of the HA-tagged enzymes with an anti-HA antibody (IR680). […]

SMILES	inhibition at 25 µM	SNAP25 S-acylation inhibition (%), zDHHC7
O=C(Nc1cccc2c1OC(c1nnn[nH]1)CN2)c1ccc(OCCCCc2ccccc2)cc1 (stereo not shown) [TTZ-2, N-(2-(1H-Tetrazol-5-yl)-3,4-dihydro-2H-benzo[b][1,4]oxazin-8-yl)-4-(4-phenylbutoxy)benzamide]	13 ± 7%	no significant effect
CCCCCCCOc1ccc(C(=O)Nc2cccc3c2OC(c2nnn[nH]2)CN3)cc1 (stereo not shown) [TTZ-1, N-(2-(1H-Tetrazol-5-yl)-3,4-dihydro-2H-benzo[b][1,4]oxazin-8-yl)-4-(heptyloxy)benzamide]	14 ± 7%	no significant effect
